Key:
M. Smegmatis ATCC607 = assay: In-vitro anti-bacterial activity against strain M. smegmatis ATCC607 (Alamar Blue growth inhibition); assay type: cell-based; details: 48 hours incubation; for IC50: Mycolicibacterium smegmatis, read-out: M. smegmatis pIC50 (converted)
Protocol: Serial five-fold dilutions (45 μl in 180 μl) were made directly in the microtiter plates from column 2 to 11 using a customised robot system (Zymark Corp., Hopkinton, Mass.). Pipette tips were changed after every 3 dilutions to minimize pipetting errors with high hydrophobic compounds. Untreated control samples with (column 1) and without (column 12) inoculum were included in each microtiter plate. Approximately 250 CFU per well of bacteria inoculum, in a volume of 100 μl in 2.8× Mueller-Hinton broth medium, was added to the rows […]. The same volume of broth medium without inoculum was added to column 12 in row A to H. The cultures were incubated at 37° C. for 48 hours in a humidified 5% CO2 atmosphere (incubator with open air valve and continuous ventilation). At the end of incubation, two days after inoculation, the bacterial growth was quantitated fluorometrically. Therefore Alamar Blue (10×) was added to all wells in a volume of 20 μl and plates were incubated for another 2 hours at […] The fluorescence was read in a computer-controlled fluorometer (Cytofluor, Biosearch) at an excitation wavelength of 530 nm and an emission wavelength of 590 nm (gain 30). The percentage growth inhibition achieved by the compounds was calculated according to standard methods and expressed as pIC50 values.

[1] = system: Mycobacterium tuberculosis (strain H37RV); assay: In-vitro method for testing compounds against M. tuberculosis (resazurin growth inhibition); assay type: cell-based; details: 7 days incubation

SMILES | M. smegmatis pIC50 (M. Smegmatis ATCC607) | further results
COc1nc2ccc(Br)cc2cc1C(c1ccccc1)N(C)CCN(C)C (stereo not drawn) [Compound 1] | 5.1 | –
CCN(CC)CCN(C)C(c1ccccc1)c1cc2cc(Br)ccc2nc1OC (stereo not drawn) [Compound 2] | – | IC50 (M. Smegmatis ATCC607): 2000 nM
COc1nc2ccc(Br)cc2cc1C(c1ccccc1)N(C)CC(=O)N(C)C (stereo not drawn) [Compound 4] | 5.1 | –
COc1nc2ccc(Br)cc2cc1C(c1ccccc1)N(C)CC(=O)N(C)C(C)C (stereo not drawn) [Compound 5] | 5.1 | –
CCCCN(C)C(=O)CN(C)C(c1ccccc1)c1cc2cc(Br)ccc2nc1OC (stereo not drawn) [Compound 6] | 5.1 | –
COc1nc2ccc(Br)cc2cc1C(c1ccccc1)N(C)CC(=O)N(C)CC#N (stereo not drawn) [Compound 7] | 4.9 | –
COc1nc2ccc(Br)cc2cc1C(c1ccccc1)N(C)CC(=O)N(C)CCN(C)C (stereo not drawn) [Compound 8] | 5.1 | –
COc1nc2ccc(Br)cc2cc1C(c1ccccc1)N(C)CC(=O)N(C)CCCN(C)C (stereo not drawn) [Compound 9] | 5 | –
COc1nc2ccc(Br)cc2cc1C(c1ccccc1)N(C)CC(=O)N(C)c1ccccc1C (stereo not drawn) [Compound 10] | 4.7 | –
CCN(Cc1ccncc1)C(=O)CN(C)C(c1ccccc1)c1cc2cc(Br)ccc2nc1OC (stereo not drawn) [Compound 12] | 5.1 | –
COCCN(CCOC)C(=O)CN(C)C(c1ccccc1)c1cc2cc(Br)ccc2nc1OC (stereo not drawn) [Compound 13] | 4.6 | –
COc1nc2ccc(Br)cc2cc1C(c1ccccc1)N(C)CC(=O)N(CCC#N)Cc1cccnc1 (stereo not drawn) [Compound 14] | 5.2 | –
COc1nc2ccc(Br)cc2c(Cl)c1C(c1ccccc1)N(C)CC(=O)N(C)C (stereo not drawn) [Compound 15] | 4.8 | –
COc1nc2ccc(Br)cc2cc1C(c1ccccc1)N(CC(=O)N(C)C)Cc1ccccc1 (stereo not drawn) [Compound 24] | 5.1 | –
COc1nc2ccc(Br)cc2cc1C(c1ccccc1)N(CC(=O)N(C)C)Cc1cccc2ncccc12 (stereo not drawn) [Compound 25] | 5.4 | –
COc1nc2ccc(Br)cc2cc1C(c1ccccc1)N(CC(=O)N(C)C)Cc1ccnc2ccccc12 (stereo not drawn) [Compound 26] | 5.7 | –
COc1nc2ccc(Br)cc2cc1C(c1ccccc1)N(C)CCCN(C)C (stereo not drawn) [Compound 27] | 5.5 | –

SMILES | M. smegmatis pIC50 (M. Smegmatis ATCC607) | further results
COc1nc2ccc(Br)cc2cc1C(c1ccccc1)N(CCCN(C)C)CCCN(C)C (stereo not drawn) [Compound 28] | 5.1 | –
CC(C)N(C)C(=O)CN(Cc1ccccc1)C(c1ccccc1)c1cc2cc(Br)ccc2nc1Oc1ccccc1 (stereo not drawn) [Compound 30] | – | IC50 (M. Smegmatis ATCC607): 631 nM
CN(C)C(=O)CN(Cc1ccccc1)C(c1ccccc1)c1cc2ccccc2nc1-c1ccccc1 (stereo not drawn) [Compound 32] | 5.7 | –
CC(C)N(C)C(=O)CN(Cc1ccccc1)C(c1ccccc1)c1cc2ccccc2nc1-c1ccccc1 (stereo not drawn) [Compound 33] | 6.5 | –
CN(C)C(=O)CN(Cc1ccccc1)C(c1cc2ccccc2o1)c1cc2ccccc2nc1-c1ccccc1 (stereo not drawn) [Compound 35] | 5.6 | –
CC(C)N(C)C(=O)CN(Cc1ccccc1)C(c1cc2ccccc2o1)c1cc2ccccc2nc1-c1ccccc1 (stereo not drawn) [Compound 36] | – | IC50 (M. Smegmatis ATCC607): 316 nM
Cc1ccc2nc(-c3ccccc3)c(C(c3ccccc3)N(C)CCN(C)C)cc2c1 (stereo not drawn) [Compound 37] | – | IC50 (M. Smegmatis ATCC607): 20000 nM
CNC(=O)CN(C)C(c1ccccc1)c1cc2cc(C)ccc2nc1-c1ccccc1 (stereo not drawn) [Compound 38] | 4.5 | –
Cc1ccc2nc(-c3ccccc3)c(C(c3ccccc3)N(C)CC(=O)N(C)C)cc2c1 (stereo not drawn) [Compound 39] | 4.5 | –
CNC(=O)CN(Cc1ccccc1)C(c1ccccc1)c1cc2cc(C)ccc2nc1-c1ccccc1 (stereo not drawn) [Compound 40] | 5.6 | –
Cc1ccc2nc(-c3ccccc3)c(C(c3ccccc3)N(CC(=O)NCC3CC3)Cc3ccccc3)cc2c1 (stereo not drawn) [Compound 42] | 5.8 | –
Cc1ccc2nc(-c3ccccc3)c(C(c3ccccc3)N(CC(=O)NC3CCCCC3)Cc3ccccc3)cc2c1 (stereo not drawn) [Compound 43] | 5.2 | –
Cc1ccc2nc(-c3ccccc3)c(C(c3ccccc3)N(CC(=O)NN3CCOCC3)Cc3ccccc3)cc2c1 (stereo not drawn) [Compound 44] | 5.1 | –
CCN(Cc1ccccc1)C(=O)CN(Cc1ccccc1)C(c1ccccc1)c1cc2cc(C)ccc2nc1-c1ccccc1 (stereo not drawn) [Compound 48] | – | M. tuberculosis pIC50 [1]: 4.1
COCCN(CCOC)C(=O)CN(Cc1ccccc1)C(c1ccccc1)c1cc2cc(C)ccc2nc1-c1ccccc1 (stereo not drawn) [Compound 50] | 5.8 | –
O=C(CN(Cc1ccccc1)C(c1cccnc1)c1cc2ccccc2nc1-c1ccccc1)N1CCSCC1 (stereo not drawn) [Compound 56] | 5.8 | –

From patent US7915292B2, “Antibacterial quinoline derivatives” (Janssen Pharmaceutica NV, priority 2005, dated 2011)
